Source: PubChem BioAssay AID1963844 (Molecular Pharmacology Branch, DTP, NCI, 2024)

System: 422866-222-R5-J1-PDC complex spheroid viability
Assay: Anticancer human tumor 422866-222-R5-J1-PDC patient-derived pancreatic adenocarcinoma cell line growth inhibition [POLQ]
Conditions: for IC50: curve of first compound; for viability, T/C: stronger effect = lower value
How it was run: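 Complex spheroid viability model combining PDC tumour cells with endothelial (HUVEC) and MSC stromal cells. Novobiocin, ART-558 or RP6685 were tested singly and in combination with standard and investigational anticancer drugs. Each was titrated in half-log steps from near clinical Cmax, or from 10 microM where Cmax was unknown.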
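Note: spheroids exposed to compounds for one week before readout.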
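Throughout, for viability, T/C: percent of DMSO vehicle wells luminescence so 100% = untreated viability.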

C=CC(=O)N1CCN(c2nc(=O)n(-c3c(C)ccnc3C(C)C)c3nc(-c4c(O)cccc4F)c(F)cc23)C(C)C1 (configuration not stated) + Nc1ccc(C#CCN(C(=O)Cc2ncc(C(F)(F)F)cc2C(F)(F)F)c2ccc(F)cc2)nn1 showed an IC50 (second compound 0.0316 µM) of under 31.6 nM, an IC50 (second compound 0.1 µM) of under 31.6 nM and an IC50 (second compound 0.316 µM) of under 31.6 nM. The IC50 (second compound 1 µM) was under 31.6 nM, the IC50 (second compound 3.16 µM) was under 31.6 nM and the IC50 (second compound 10 µM) was under 31.6 nM. The viability, T/C (second compound 0.0316 µM, first compound 0.0316 µM) was 32.5%, the viability, T/C (second compound 0.0316 µM, first compound 0.1 µM) was 28.5% and the viability, T/C (second compound 0.0316 µM, first compound 0.316 µM) was 28.3%. The viability, T/C (second compound 0.0316 µM, first compound 1 µM) was 28.5%, the viability, T/C (second compound 0.0316 µM, first compound 3.16 µM) was 27.4% and the viability, T/C (second compound 0.0316 µM, first compound 10 µM) was 23.7%. For the same compound, the viability, T/C (second compound 0.1 µM, first compound 0.0316 µM) was 32%, the viability, T/C (second compound 0.1 µM, first compound 0.1 µM) was 31.2% and the viability, T/C (second compound 0.1 µM, first compound 0.316 µM) was 24%. For the same compound, the viability, T/C (second compound 0.1 µM, first compound 1 µM) was 25.7%, the viability, T/C (second compound 0.1 µM, first compound 3.16 µM) was 23.7% and the viability, T/C (second compound 0.1 µM, first compound 10 µM) was 22.4%. It also gave a viability, T/C (second compound 0.316 µM, first compound 0.0316 µM) of 40.1%, a viability, T/C (second compound 0.316 µM, first compound 0.1 µM) of 27.8% and a viability, T/C (second compound 0.316 µM, first compound 0.316 µM) of 29%. For the same compound, the viability, T/C (second compound 0.316 µM, first compound 1 µM) was 24.4%, the viability, T/C (second compound 0.316 µM, first compound 3.16 µM) was 25.1% and the viability, T/C (second compound 0.316 µM, first compound 10 µM) was 24.2%. It also gave a viability, T/C (second compound 1 µM, first compound 0.0316 µM) of 34%, a viability, T/C (second compound 1 µM, first compound 0.1 µM) of 33.1% and a viability, T/C (second compound 1 µM, first compound 0.316 µM) of 25.9%. For the same compound, the viability, T/C (second compound 1 µM, first compound 1 µM) was 23.2%, the viability, T/C (second compound 1 µM, first compound 3.16 µM) was 22.2% and the viability, T/C (second compound 1 µM, first compound 10 µM) was 21.1%. It also gave a viability, T/C (second compound 3.16 µM, first compound 0.0316 µM) of 33.4%, a viability, T/C (second compound 3.16 µM, first compound 0.1 µM) of 27.7% and a viability, T/C (second compound 3.16 µM, first compound 0.316 µM) of 29.6%. The viability, T/C (second compound 3.16 µM, first compound 1 µM) was 24.5%, the viability, T/C (second compound 3.16 µM, first compound 3.16 µM) was 24.4% and the viability, T/C (second compound 3.16 µM, first compound 10 µM) was 29.1%. The viability, T/C (second compound 10 µM, first compound 0.0316 µM) was 30.8%, the viability, T/C (second compound 10 µM, first compound 0.1 µM) was 32.6% and the viability, T/C (second compound 10 µM, first compound 0.316 µM) was 32.4%. For the same compound, the viability, T/C (second compound 10 µM, first compound 1 µM) was 26.3%, the viability, T/C (second compound 10 µM, first compound 3.16 µM) was 24.9% and the viability, T/C (second compound 10 µM, first compound 10 µM) was 27.6%.
